SMILES strings stand for the structures. Converted amounts (≈) assume the structure as drawn. Like-named read-outs stand apart in the source and are kept apart here.

The test system of series [1] is colchicine-site of tubulin. The experiment in a line: Fluorescence-based colchicine competitive binding assay. The settings on record: 50 uM (FIG. 43). How it is done:
FIG. 43 represent fluorescence-based colchicine competitive binding assay with compounds 19, 73 and 93 at 50 uM concentration in accordance with certain embodiments of the present disclosure. Nocodazole (NOC) is positive control.
(§1) Microtubule-targeting agents that bind at the colchicine-site of tubulin are of interest in antitumoral therapy due to their action as anti-mitotics. […] Nocodazole was used as a positive control. […] Colchicine (COL) and nocodazole (NOC) are positive controls while vincristine (VINC) is negative control.

The subject of series [2] is colchicine binding site (tubulin) in MCF7 cell lines. The experiment in a line: N,N'-ethylene-bis(iodoacetamide) (EBI) competition assay in MCF7 cells. The series is classed as cell-based. Particulars: MCF7 cell lines (FIG. 44).
Source text: FIG. 44 represent N,N′-ethylene-bis(iodoacetamide) (EBI) competition assay with compounds 19, 73 and 93 in MCF7 cell lines showing binding of compounds in colchicine binding site in accordance with certain embodiments of the present disclosure. Colchicine (COL) and nocodazole (NOC) are positive controls while vincristine (VINC) is negative control.
as §1

In a further series the test system is LN18 cells. Nature of the series: Cell viability (AlamarBlue), LN18 glioma cells. The class given is cell-based. The settings on record: Homo sapiens, LN-18, 72 hours of treatment. The method, then: (§2) In another exemplary method, half maximal effective concentration (EC50) was determined for some compounds and their isomers as disclosed herein in a variety of human cancer cell lines. In brief, cells from two prostate cancer cell lines (LNCaP, 22RV1), one glioblastoma cell line (U87), one breast cancer cell line (MCF7), a glioma cell line (LN18), a normal prostate cell line (RWPE1), and a glioblastoma cell line (T98G) were plated in a multi-well plate. After 24 hours, one of the compounds herein was added to the well at increasing concentrations. After 72 hours of treatment, cell viability was assessed using AlamrBlue® (Invitrogen) and fluorescence was read using the CLARIOstar Plus Multilabel Plate Reader (BMG Labtech). Samples were normalized to no treatment controls. EC50 values were determined using GraphPad Prism.
(In general: Resazurin is reduced to fluorescent resorufin, in cell work by metabolically active cells.)

In another series the test system is U87 glioblastoma cells. Nature of the series: Combination with ionizing radiation in U87 cells. The class given is cell-based. The settings on record: 2 Gy ionizing radiation and 0.04-0.3 uM compound; versus ionizing radiation alone.
In series [3] the test system is tubulin. The experiment in a line: Tubulin polymerization assay. The settings on record: 5 uM (FIG. 41A, 41C) or 1 uM (FIG. 41B). The class given is biochemical. How it is done: FIG. 41A-41C represent exemplary experiments illustrating inhibition of tubulin polymerization. FIG. 41A illustrates effects of compounds 19, 73, 86, 93 and 94 at 5 uM concentration. FIG. 41B illustrates effects of compounds 93, 94, 95 and 96 at 1 uM concentration.
FIG. 41C illustrates effects of compounds 73, 86, 87 and 88 at 5 uM concentration in accordance with certain embodiments of the present disclosure. Colchicine and vincristine are positive controls.
FIG. 42A-42B represent exemplary experiments illustrating inhibition of tubulin polymerization. FIG. 42A illustrates effects of compound 19 at 0.3, 1, 3 and 6 uM concentrations.
FIG. 42B illustrates effects of compound 73 at […] concentration in accordance with certain embodiments of the present disclosure. Colchicine and nocodazole are positive controls.
In another exemplary method, the effect of the compounds herein on tubulin polymerization was determined. FIG. 41A illustrates effects of compounds 19, 73, 86, 93 and 94 at 5 uM concentration, FIG. 41B illustrates effects of compounds 93, 94, 95 and 96 at 1 uM concentration, or FIG. 41C illustrates effects of compounds 87 and 88 at 5 uM concentration in accordance with certain embodiments of the present disclosure. Colchicine and vincristine are positive controls.
The dose dependent effect of compounds 19 and 73 on tubulin polymerization was also determined. FIG. 42A illustrates effects of compound 19 at 0.3, 1, 3 and 6 uM concentrations, and FIG. 42B illustrates effects of compound 73 at 0.1, 0.3, 1, 3 and 5 uM concentration in accordance with certain embodiments of the present disclosure. Colchicine and nocodazole are positive controls.

Series [4] concerns tubulin. The experiment in a line: Tubulin polymerization assay. The series is classed as biochemical. Particulars: compound 19 at 0.3, 1, 3 and 6 uM; compound 73 at 0.1, 0.3, 1, 3 and 5 uM.
Series [5] deals with LN18 glioblastoma cancer cells. The experiment in a line: Combination with Temozolomide, Bliss synergy in LN18 cells. The series is classed as cell-based. Particulars: Temozolomide 0 to 1000 uM, compound 0.625 to 10 uM. The method, then:
Synergy was calculated with the Bliss independence model. Compounds were combined at concentrations of 0 to 1000 uM for Temozolomide and 0.625 to 10 uM for compounds 19 and 59.

A short description of series [6]: Kinetic solubility in aqueous PBS buffer (HPLC-MS). The class given is physicochemical. The settings on record: kinetic from dmso stock, DMSO stock mixed with aqueous PBS buffer, filtered, read-out: Kinetic Solubility. A digest of the protocol:
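A concentrated DMSO stock was mixed with aqueous PBS buffer and filtered. The filtrate was quantified against an HPLC-MS calibration curve.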

For the next series, the system named is 22RV1 cells. The experiment in a line: Cell viability (AlamarBlue), 22RV1 prostate cancer cells. The class given is cell-based, human. Particulars: Homo sapiens, 22Rv1, 72 h, 72 hours of treatment. A digest of the protocol:
(§3)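 Viability is read by AlamarBlue fluorescence after cells, seeded 24 hours earlier, are treated for 72 hours with a concentration series of compound. Signals are expressed relative to no-treatment controls before EC50 fitting.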

Series [7] deals with 22Rv1 prostate cancer cells. The experiment in a line: Combination with Rabusertib, Bliss synergy in 22Rv1 cells. The series is classed as cell-based. The settings on record: Rabusertib 0 to 30 uM, compound 0.625 to 5 uM. How it is done: Synergy was calculated with the Bliss independence model. Compounds were combined at concentrations of 0 to 30 uM for Rabusertib and 0.625 to 5 uM for compounds 73 and 76.

The next series relates to U87 cells. Nature of the series: Cell viability (AlamarBlue), U87 glioblastoma cells. Particulars: Homo sapiens, U-87 MG, 72 h, 72 hours of treatment. The class given is cell-based, human. In a few lines:
as §3

The next series has as its system T98G cells. Nature of the series: Cell viability (AlamarBlue), T98G glioblastoma cells. The settings on record: Homo sapiens, 72 hours of treatment. The class given is cell-based. The method, then: as §2
A short description of series [8]: Plasma and brain levels in healthy mouse. The class given is in vivo. The settings on record: oral dose. From the text: FIG. 53A-53B represent an exemplary experiment illustrating concentration of Compound 98 in plasma after oral dose (FIG. 53A); FIG. 53B represents levels of Compound 98 in plasma and brain tissue after administration to a rodent model in accordance with certain embodiments of the present disclosure.
FIG. 53A illustrates concentrations of Compound 98 in healthy mouse plasma over time. FIG. 53B and Table 9 illustrates concentrations of Compound 98 in healthy mouse plasma and brain at 0.5, 1 and 2 hrs.

Where [9] appears, read: brain, read-out: Healthy Brain concentration.
The mark [10] stands for this setting: plasma, read-out: Plasma concentration.

As to `COC1CC(C(=O)NC(=O)Nc2ccc(Oc3ccc(Cl)cn3)c(C)c2)C1` (stereo not drawn) [Compound 19, N-((4-((5-chloropyridin-2-yl)oxy)-3-methylphenyl)carbamoyl)-3-methoxycyclobutane-1-carboxamide], the “colchicine competitive binding assay result” value in [1] is “significantly inhibit microtubule assembly”. Besides, in [2], the “EBI competition assay result” value is “inhibitors of EBI binding”. This compound also showed an EC50 in the series with LN18 cells of 0.83 µM. In addition, the “cancer cell viability with ionizing radiation plus compound” value with U87 glioblastoma cells is on record as “reduced cancer cell viability relative to cells treated with ionizing radiation alone”. The “effect on tubulin polymerization” value in the series on tubulin [3] is “significantly inhibit tubulin polymerization”. The “dose dependent effect on tubulin polymerization” value in the series on tubulin [4] was “significantly inhibit tubulin polymerization in a dose dependent manner”. The “Bliss Synergy value, combination with Temozolomide” value in [5] (LN18 cells, Bliss independence model) turned out to be 29.5. For the same compound, in series [5], the “effect of combination with Temozolomide on cancer cell viability” value is listed as “synergistic decrease in cancer cell viability”. Besides, the solubility (kinetic) in [6] was 5.68 µM (≈ 2.21 µg/mL).
Regarding `COC1CC(C(=O)NC(=O)Nc2cc(C)c(Oc3ncc(Cl)cn3)c(F)c2)C1` (stereo not drawn) [Compound 73, N-((4-((5-chloropyrimidin-2-yl)oxy)-3-fluoro-5-methylphenyl)carbamoyl)-3-methoxycyclobutane carboxamide], in [1], the “colchicine competitive binding assay result” value is listed as “significantly inhibit microtubule assembly”. The EC50 is 0.068 µM in the series on 22RV1 cells and 0.12 µM in the series with U87 cells. Besides, the “EBI competition assay result” value in [2] is reported as “inhibitors of EBI binding”. Also, the “Bliss Synergy value, combination with Rabusertib” value in series [7] (22Rv1 cells, Bliss independence model) is 20.7. In addition, the “effect of combination with Rabusertib on cancer cell viability” value in series [7] is “synergistic decrease in cancer cell viability”. Besides, the “effect on tubulin polymerization” value with tubulin [3] was “significantly inhibit tubulin polymerization”. Moreover, the “dose dependent effect on tubulin polymerization” value in the series with tubulin [4] is given as “significantly inhibit tubulin polymerization in a dose dependent manner”.
With `COC12CC(C(=O)NC(=O)Nc3cc(C)c(Oc4ncc(Cl)cn4)c(F)c3)(C1)C2` [Compound 90, N-((4-((5-chloropyrimidin-2-yl)oxy)-3-fluoro-5-methylphenyl)carbamoyl)-3-methoxybicyclo[1.1.1]pentane-1-carboxamide], the half-maximal effective concentration (EC50) with T98G cells turned out to be 0.0384 µM; in the series on LN18 cells, 0.034 µM; with U87 cells, 0.065 µM. For the same compound, the kinetic solubility in series [6] was 2.17 µM (≈ 0.913 µg/mL).
`COC1CC(C(=O)NC(=O)Nc2ccc(C)c(Oc3nccs3)c2)C1` (stereo not drawn) [Compound 93, 3-methoxy-N-((4-methyl-3-(thiazol-2-yloxy)phenyl)carbamoyl)cyclobutane-1-carboxamide]: the “colchicine competitive binding assay result” value in series [1] is recorded as “significantly inhibit microtubule assembly”. For the same compound, in series [2], the “EBI competition assay result” value is reported as “inhibitors of EBI binding”. Also, in the series on tubulin [3], the “effect on tubulin polymerization” value is listed as “significantly inhibit tubulin polymerization”. In the series with U87 cells, this compound came in with an EC50 of 0.03 µM. Further, in [6], the kinetic solubility turned out to be 8.9 µM (≈ 3.22 µg/mL).
With `COC12CC(C(=O)NC(=O)Nc3ccc(C)c(Oc4ncccn4)c3)(C1)C2` [Compound 97, 3-methoxy-N-((4-methyl-3-(pyrimidin-2-yloxy)phenyl)carbamoyl)bicyclo[1.1.1]pentane-1-carboxamide], the figures for the EC50 in the series on T98G cells, in the series with LN18 cells and in the series with U87 cells were 0.026 µM, 0.011 µM and 0.02 µM, respectively. Further, in series [6], the kinetic solubility amounted to 5.8 µM (≈ 2.14 µg/mL).
For the compound `COC12CC(C(=O)NC(=O)Nc3ccc(C)c(Oc4ccccn4)c3)(C1)C2` [Compound 98, 3-methoxy-N-((4-methyl-3-(pyridin-2-yloxy)phenyl)carbamoyl)bicyclo[1.1.1]pentane-1-carboxamide], the figures for the concentration at 0.5 h in [8] (setting [9]) and in [8] (setting [10]) were 230 ng/g and 424 ng/mL, respectively. Besides, the concentration at 1 h stood at 234 ng/g in series [8] (setting [9]) and 490 ng/mL in [8] (setting [10]). Besides, the concentration at 2 h in series [8] (setting [9]) stood at 257 ng/g; in series [8] (setting [10]), 399 ng/mL. Moreover, the figures for the EC50 with T98G cells, in the series with LN18 cells and in the series on U87 cells were 0.0189 µM, 0.07 µM and 0.02 µM, respectively.

The EC50 is the concentration at which the effect is half-maximal. A word on the kinetic solubility: it is solubility judged after dilution from a stock solution rather than from solid.

For the origin of these results see patent US12404242B2, “Compositions and methods for making and using small molecules in the treatment of cancer” (Reglagene, Inc., priority 2021, dated 2025).
